Experimental data as given in paper PMC7181660, “A novel specific PERK activator reduces toxicity and extends survival in Huntington's disease models” (Scientific Reports, 2020).
Read-outs that look alike come from different tables or passages of the source.

Legend:
Test in all cases: biochemical
Type in all cases: biochemical
panel of 391 kinases [1] = target: panel of 391 kinases (Homo sapiens, UniProt P32298); settings: GRK4, MK-28 1 µM, ATP 1 µM
panel of 391 kinases [2] = target: panel of 391 kinases (Homo sapiens, UniProt P20794); settings: MAK, MK-28 1 µM, ATP 1 µM
panel of 391 kinases [3] = target: panel of 391 kinases (Homo sapiens, UniProt Q15831); settings: LKB1, MK-28 1 µM, ATP 1 µM
panel of 391 kinases [4] = target: panel of 391 kinases (Homo sapiens, UniProt Q13233); settings: MEKK1, MK-28 1 µM, ATP 1 µM
panel of 391 kinases [5] = target: panel of 391 kinases (Homo sapiens, UniProt Q9H1R3); settings: MLCK2/MYLK2, MK-28 1 µM, ATP 1 µM
panel of 391 kinases [6] = target: panel of 391 kinases (Homo sapiens, UniProt O96017); settings: CHK2, MK-28 1 µM, ATP 1 µM
panel of 391 kinases [7] = target: panel of 391 kinases (Homo sapiens, UniProt Q9UPE1); settings: MSSK1/STK23, MK-28 1 µM, ATP 1 µM
panel of 391 kinases [8] = target: panel of 391 kinases (Homo sapiens, UniProt P29376); settings: TYK1/LTK, MK-28 1 µM, ATP 1 µM
panel of 391 kinases [9] = target: panel of 391 kinases (Homo sapiens, UniProt P53671); settings: LIMK2, MK-28 1 µM, ATP 1 µM
panel of 391 kinases [10] = target: panel of 391 kinases (Homo sapiens, UniProt P53778); settings: P38g, MK-28 1 µM, ATP 1 µM
panel of 391 kinases [11] = target: panel of 391 kinases (Homo sapiens, UniProt P06493); settings: MK-28 1 µM, ATP 1 µM; for remaining activity at 1 µM: read-out: % Enzyme Activity (relative to DMSO controls)
panel of 391 kinases [12] = target: panel of 391 kinases (Homo sapiens, UniProt P04626); settings: ERBB2/HER2, MK-28 1 µM, ATP 1 µM
panel of 391 kinases [13] = target: panel of 391 kinases (Homo sapiens, UniProt P25098); settings: GRK2, MK-28 1 µM, ATP 1 µM
panel of 391 kinases [14] = target: panel of 391 kinases (Homo sapiens, UniProt O15264); settings: P38d/MAPK13, MK-28 1 µM, ATP 1 µM
panel of 391 kinases [15] = target: panel of 391 kinases (Homo sapiens, UniProt O14757); settings: CHK1, MK-28 1 µM, ATP 1 µM
panel of 391 kinases [16] = target: panel of 391 kinases (Homo sapiens, UniProt O43293); settings: kinase ZIPK/DAPK3, compound at 1 µM, single dose in duplicates, 1 µM ATP
panel of 391 kinases [17] = target: panel of 391 kinases (Homo sapiens, UniProt P35968); settings: KDR/VEGFR2, MK-28 1 µM, ATP 1 µM
panel of 391 kinases [18] = target: panel of 391 kinases (Homo sapiens, UniProt Q9BXA6); settings: SSTK/TSSK6, MK-28 1 µM, ATP 1 µM
panel of 391 kinases [19] = target: panel of 391 kinases (Homo sapiens, UniProt Q9UHD2); settings: TBK1, MK-28 1 µM, ATP 1 µM
panel of 391 kinases [20] = target: panel of 391 kinases (Homo sapiens, UniProt O94806); settings: PKCnu/PRKD3, MK-28 1 µM, ATP 1 µM
panel of 391 kinases [21] = target: panel of 391 kinases (Homo sapiens, UniProt Q9NWZ3); settings: IRAK4, MK-28 1 µM, ATP 1 µM
panel of 391 kinases [22] = target: panel of 391 kinases (Homo sapiens, UniProt Q96GD4); settings: Aurora B, MK-28 1 µM, ATP 1 µM
panel of 391 kinases [23] = target: panel of 391 kinases (Homo sapiens, UniProt P50750); settings: MK-28 1 µM, ATP 1 µM; for remaining activity at 1 µM: read-out: % Enzyme Activity (relative to DMSO controls)
panel of 391 kinases [24] = target: panel of 391 kinases (Homo sapiens, UniProt Q86V86); settings: PIM3, MK-28 1 µM, ATP 1 µM
panel of 391 kinases [25] = target: panel of 391 kinases (Homo sapiens, UniProt Q9Y6E0); settings: MST3/STK24, MK-28 1 µM, ATP 1 µM
[26] = read-out: % Enzyme Activity (relative to DMSO controls)

Q: For CN(/N=C\c1ccc(O)c(O)c1)c1nc(-c2ccccc2)cc(-c2ccccc2)n1 [MK-28], which “% Enzyme Activity (relative to DMSO controls)” value (panel of 391 kinases [1]) is on record?
A: 97.72%

Q: What about the remaining activity at 1 µM (panel of 391 kinases [1]; [26]) of the same molecule?
A: 99.2%

Q: What about the “% Enzyme Activity (relative to DMSO controls)” value (panel of 391 kinases [2]) of the same molecule?
A: 94.70%

Q: What about the remaining activity at 1 µM (panel of 391 kinases [2]; [26]) of the same molecule?
A: 97.8%

Q: And the “% Enzyme Activity (relative to DMSO controls)” value (panel of 391 kinases [3])?
A: 90.38%

Q: What about the remaining activity at 1 µM (panel of 391 kinases [3]; [26]) of the same molecule?
A: 97.4%

Q: What about the “% Enzyme Activity (relative to DMSO controls)” value (panel of 391 kinases [4]) of the same molecule?
A: 92.45%

Q: What about the remaining activity at 1 µM (panel of 391 kinases [4]; [26]) of the same molecule?
A: 95.1%

Q: What about the “% Enzyme Activity (relative to DMSO controls)” value (panel of 391 kinases [5]) of the same molecule?
A: 95.96%

Q: And the remaining activity at 1 µM (panel of 391 kinases [5]; [26])?
A: 96.4%

Q: And the “% Enzyme Activity (relative to DMSO controls)” value (panel of 391 kinases [6])?
A: 98.51%

Q: What about the remaining activity at 1 µM (panel of 391 kinases [6]; [26]) of the same molecule?
A: 101%

Q: What about the “% Enzyme Activity (relative to DMSO controls)” value (panel of 391 kinases [7]) of the same molecule?
A: 107.79%

Q: And the remaining activity at 1 µM (panel of 391 kinases [7]; [26])?
A: 108%

Q: What about the “% Enzyme Activity (relative to DMSO controls)” value (panel of 391 kinases [8]) of the same molecule?
A: 82.78%

Q: What about the remaining activity at 1 µM (panel of 391 kinases [8]; [26]) of the same molecule?
A: 84.2%

Q: What about the “% Enzyme Activity (relative to DMSO controls)” value (panel of 391 kinases [9]) of the same molecule?
A: 94.92%

Q: What about the remaining activity at 1 µM (panel of 391 kinases [9]; [26]) of the same molecule?
A: 95.4%

Q: What about the “% Enzyme Activity (relative to DMSO controls)” value (panel of 391 kinases [10]) of the same molecule?
A: 100.96%

Q: What about the remaining activity at 1 µM (panel of 391 kinases [10]; [26]) of the same molecule?
A: 107%

Q: And the “% Enzyme Activity (relative to DMSO controls)” value (panel of 391 kinases [11]; CDK1/cyclin A)?
A: 104.81%

Q: What about the remaining activity at 1 µM (panel of 391 kinases [11]; CDK1/cyclin A) of the same molecule?
A: 105%

Q: And the “% Enzyme Activity (relative to DMSO controls)” value (panel of 391 kinases [11]; CDK1/cyclin B)?
A: 94.54%

Q: What about the remaining activity at 1 µM (panel of 391 kinases [11]; CDK1/cyclin B) of the same molecule?
A: 95%

Q: And the “% Enzyme Activity (relative to DMSO controls)” value (panel of 391 kinases [11]; CDK1/cyclin E)?
A: 97.74%

Q: What about the remaining activity at 1 µM (panel of 391 kinases [11]; CDK1/cyclin E) of the same molecule?
A: 97.8%

Q: And the “% Enzyme Activity (relative to DMSO controls)” value (panel of 391 kinases [12])?
A: 98.41%

Q: And the remaining activity at 1 µM (panel of 391 kinases [12]; [26])?
A: 99.3%

Q: What about the “% Enzyme Activity (relative to DMSO controls)” value (panel of 391 kinases [13]) of the same molecule?
A: 99.37%

Q: And the remaining activity at 1 µM (panel of 391 kinases [13]; [26])?
A: 99.8%

Q: What about the “% Enzyme Activity (relative to DMSO controls)” value (panel of 391 kinases [14]) of the same molecule?
A: 103.63%

Q: And the remaining activity at 1 µM (panel of 391 kinases [14]; [26])?
A: 104%

Q: And the “% Enzyme Activity (relative to DMSO controls)” value (panel of 391 kinases [15])?
A: 141.74%

Q: What about the remaining activity at 1 µM (panel of 391 kinases [15]; [26]) of the same molecule?
A: 150%

Q: And the “% Enzyme Activity (relative to DMSO controls)” value (panel of 391 kinases [16])?
A: 79.41%

Q: And the remaining activity at 1 µM (panel of 391 kinases [16]; [26])?
A: 79.9%

Q: What about the “% Enzyme Activity (relative to DMSO controls)” value (panel of 391 kinases [17]) of the same molecule?
A: 98.38%

Q: And the remaining activity at 1 µM (panel of 391 kinases [17]; [26])?
A: 99.8%

Q: And the “% Enzyme Activity (relative to DMSO controls)” value (panel of 391 kinases [18])?
A: 97.30%

Q: And the remaining activity at 1 µM (panel of 391 kinases [18]; [26])?
A: 97.6%

Q: What about the “% Enzyme Activity (relative to DMSO controls)” value (panel of 391 kinases [19]) of the same molecule?
A: 116.87%

Q: And the remaining activity at 1 µM (panel of 391 kinases [19]; [26])?
A: 126%

Q: And the “% Enzyme Activity (relative to DMSO controls)” value (panel of 391 kinases [20])?
A: 97.83%

Q: What about the remaining activity at 1 µM (panel of 391 kinases [20]; [26]) of the same molecule?
A: 98.1%

Q: And the “% Enzyme Activity (relative to DMSO controls)” value (panel of 391 kinases [21])?
A: 124.00%

Q: What about the remaining activity at 1 µM (panel of 391 kinases [21]; [26]) of the same molecule?
A: 129%

Q: What about the “% Enzyme Activity (relative to DMSO controls)” value (panel of 391 kinases [22]) of the same molecule?
A: 106.50%

Q: And the remaining activity at 1 µM (panel of 391 kinases [22]; [26])?
A: 107%

Q: And the “% Enzyme Activity (relative to DMSO controls)” value (panel of 391 kinases [23]; CDK9/cyclin K)?
A: 95.35%

Q: And the remaining activity at 1 µM (panel of 391 kinases [23]; CDK9/cyclin K)?
A: 96.1%

Q: And the “% Enzyme Activity (relative to DMSO controls)” value (panel of 391 kinases [23]; CDK9/cyclin T1)?
A: 83.98%

Q: And the remaining activity at 1 µM (panel of 391 kinases [23]; CDK9/cyclin T1)?
A: 84.2%

Q: What about the “% Enzyme Activity (relative to DMSO controls)” value (panel of 391 kinases [23]; CDK9/cyclin T2) of the same molecule?
A: 97.55%

Q: And the remaining activity at 1 µM (panel of 391 kinases [23]; CDK9/cyclin T2)?
A: 103%

Q: And the “% Enzyme Activity (relative to DMSO controls)” value (panel of 391 kinases [24])?
A: 87.24%

Q: And the remaining activity at 1 µM (panel of 391 kinases [24]; [26])?
A: 89.2%

Q: And the “% Enzyme Activity (relative to DMSO controls)” value (panel of 391 kinases [25])?
A: 121.45%

Q: What about the remaining activity at 1 µM (panel of 391 kinases [25]; [26]) of the same molecule?
A: 122%
